Measurements from patent publication US11406613B2, “Treatment of osteoarthritis” (ST GEORGE'S HOSPITAL MEDICAL SCHOOL, priority 2016, dated 2022).
Read-outs that look alike come from different tables or passages of the source.

Assays:
hand OA participants [1] = conditions: per-protocol; for Hospital Anxiety and Depression Scale Depression Mean diff (95% CI): baseline to 90 days; for Hospital Anxiety and Depression Scale Anxiety Baseline (95% CI): listed as head as printed; for Hospital Anxiety and Depression Scale Anxiety: listed as head prints only 'Anxiety'
From the text: Additional secondary outcomes included the Numerical Rating Scale (NRS) pain rating 0-10, the Hospital Anxiety and Depression Scale (HADS) (Bjelland et al., Journal of Psychosomatic Research. 2002; 52(2): 69-77) and pain sensitisation measures in the three treatment groups at baseline and at week 13.

hand OA participants [2] = conditions: per-protocol; for Numerical Rating Scale (NRS) 90 days (95% CI) / Numerical Rating Scale (NRS) Baseline (95% CI): imputed data; for Numerical Rating Scale (NRS) Baseline (95% CI): scale 0-10; for Numerical Rating Scale (NRS) Mean diff (95% CI): baseline to 90 days
From the text: (§1) Participants were issued with a diary card with their medication to be completed for VAS pain rating on a daily basis. […] The protocol recommended that participants should record use of rescue medication (paracetamol up to 4 g daily) in their diary card. […] All other care was at the discretion of the treating physicians.
Additional secondary outcomes included the Numerical Rating Scale (NRS) pain rating 0-10, the Hospital Anxiety and Depression Scale (HADS) (Bjelland et al., Journal of Psychosomatic Research. 2002; 52(2): 69-77) and pain sensitisation measures in the three treatment groups at baseline and at week 13. Operational definitions for all end points, including time points for comparisons, were specified prospectively in the trial protocol.
(§2) The AUSCAN pain, stiffness and function outcomes are presented as means and 95% confidence intervals. Analysed between group were comparisons by the Mann Whitney U test. Baseline characteristics in each group are shown by mean values and standard deviation. […] IBM SPSS Statistics 21.0 was used for all analyses and graphs were plotted using Graphpad Prism version 6.

hand OA participants [3] = conditions: for Consumption of rescue medication (total): paracetamol up to 4 g daily as rescue medication, per-protocol population; for Average use of paracetamol as rescue medication compared with placebo: result in words
From the text: as §1

hand OA participants [4] = conditions: for AUSCAN pain score 90 days (95% CI) / AUSCAN pain score Baseline (95% CI): per-protocol population; for AUSCAN pain score 90 days (95% CI) / AUSCAN pain score Baseline (95% CI) / AUSCAN function 90 days (95% CI) / AUSCAN stiffness 90 days (95% CI) / AUSCAN function Baseline (95% CI) / AUSCAN stiffness Baseline (95% CI): imputed data; for AUSCAN pain score 90 days (95% CI): pregabalin up to 300 mg, duloxetine up to 60 mg daily; for AUSCAN pain score Baseline (95% CI): 5 questions 0-100 mm, total of 500; for AUSCAN function 90 days (95% CI) / AUSCAN stiffness 90 days (95% CI) / AUSCAN function Baseline (95% CI) / AUSCAN stiffness Baseline (95% CI) / AUSCAN function Mean diff (95% CI) / AUSCAN stiffness Mean diff (95% CI) / AUSCAN pain score Mean diff (95% CI): per-protocol; for AUSCAN stiffness Baseline (95% CI): one question 0-100 mm; for AUSCAN function Mean diff (95% CI) / AUSCAN stiffness Mean diff (95% CI): baseline to 90 days; for AUSCAN pain score Mean diff (95% CI): change between baseline and 90 days (13 weeks), primary endpoint
From the text: Inclusion criteria: Participants were eligible for screening if they were aged 40-75 years, had hand OA diagnosed by ACR criteria (Altman et al., Arthritis and Rheumatism 1990; 33(11): 1601-10) confirmed by a rheumatologist and experiencing pain of at least 5 or above on a numerical rating scale (NRS) of 0-10. […] All participants underwent baseline hand radiography to confirm radiographic evidence of OA. The radiographic findings were used to confirm radiographic evidence of OA from ACR criteria of at least 3 joints affected, with a Kellgren-Lawrence grade (Kellgren et al., Ann Rheum Dis 1957; 16(4): 494-502) of 2 or above in at least 3 affected joints. Radiographic scoring was performed after a training session independently by 2 researchers.
Participants were issued with a diary card with their medication to be completed for VAS pain rating on a daily basis. […] The protocol recommended that participants should record use of rescue medication (paracetamol up to 4 g daily) in their diary card.
The primary end point was the Australian and Canadian Hand Osteoarthritis Index (AUSCAN) rating scale 3.1 with sub-scales for pain, which is a validated measure of hand pain, stiffness and function in clinical trials of hand OA (Bellamy et al., Arthritis Care Res (Hoboken) 2015; 67(7): 972-80). Based on IMMPACT guidelines for pain trials (Dworkin et al., Pain 2005; 113: 9-19), primary end-point data for the AUSCAN pain sub-scale was collected. The primary endpoint was change in AUSCAN pain between baseline and 13 weeks. Patient-reported symptoms were recorded in three domains and participants asked to record their scores based on symptoms ‘in the last 48 hours’. Pain reporting consists of 5 questions, rated at 0-100 mm each, for pain in the hands at rest, gripping objects, turning and squeezing objects, scoring out of a total of 500.
For secondary outcome data, the AUSCAN stiffness and function scales were recorded; there was one question for stiffness symptoms (0-100 mm) and 3 questions testing function (0-100 mm each). Additional secondary outcomes included the Numerical Rating Scale (NRS) pain rating 0-10, the Hospital Anxiety and Depression Scale (HADS) (Bjelland et al., Journal of Psychosomatic Research. 2002; 52(2): 69-77) and pain sensitisation measures in the three treatment groups at baseline and at week 13. Operational definitions for all end points, including time points for comparisons, were specified prospectively in the trial protocol.
as §2

knee OA = conditions: Chappell et al., Pain 2009; cited from earlier work
hand OA participants [5] = conditions: for Side effects: Total (adverse events recorded): all systems, whole treatment group; for Participants discontinuing treatment / withdrawing because of (serious) adverse events: number of participants
Method: The safety and tolerability of these agents used in this context was secondarily explored, and pain sensitisation measures were assessed.
as §1

primary hand OA = conditions: Basoki et al., Ann Rheum Dis 2015; cited from earlier work
[6] = number of adverse events recorded in treatment group

In the case of `CNCC[C@H](Oc1cccc2ccccc12)c1cccs1` [Duloxetine], the “Hospital Anxiety and Depression Scale Depression 90 days (95% CI)” value (hand OA participants [1]) is reported as 3.8 (1.9 to 5.7), the “Hospital Anxiety and Depression Scale Depression Baseline (95% CI)” value (hand OA participants [1]) is reported as 4.1 (2.3 to 5.9) and the “Hospital Anxiety and Depression Scale Depression Mean diff (95% CI)” value (hand OA participants [1]) is reported as −0.3 (−1.8 to 1.2). The “Hospital Anxiety and Depression Scale Anxiety Baseline (95% CI)” value (hand OA participants [1]) was 4.3 (2.2 to 6.3), the “Hospital Anxiety and Depression Scale Anxiety” value (hand OA participants [1]) was 5.6 (3.6 to 7.5) and the “Numerical Rating Scale (NRS) 90 days (95% CI)” value (hand OA participants [2]) was 4.3 (2.6 to 5.9). For the same compound, the “Numerical Rating Scale (NRS) Baseline (95% CI)” value (hand OA participants [2]) was 6.6 (5.7 to 7.4), the “Numerical Rating Scale (NRS) Mean diff (95% CI)” value (hand OA participants [2]) was −2.3 (−3.8 to −0.9) and the “Consumption of rescue medication (total)” value (hand OA participants [3]) was 5 days. For the same compound, the “Average use of paracetamol as rescue medication compared with placebo” value (hand OA participants [3]) was “much lower”, the “Significant improvement in AUSCAN pain, stiffness or function compared with placebo” value (hand OA participants [4]; baseline to 13 weeks, result in words) was “Significant improvement in AUSCAN pain, stiffness or function were not observed” and the “AUSCAN pain score 90 days (95% CI)” value (hand OA participants [4]) was 248.1 (162.3 to 333.9). For the same compound, the “AUSCAN pain score Baseline (95% CI)” value (hand OA participants [4]) was 310.6 (254.3 to 367.0), the “AUSCAN function 90 days (95% CI)” value (hand OA participants [4]) was 496.4 (342.4 to 650.5) and the “AUSCAN stiffness 90 days (95% CI)” value (hand OA participants [4]) was 48.3 (29.9 to 66.6). The “AUSCAN function Baseline (95% CI)” value (hand OA participants [4]) was 598.3 (481.2 to 715.3), the “AUSCAN stiffness Baseline (95% CI)” value (hand OA participants [4]) was 61.8 (45.8 to 77.8) and the “AUSCAN function Mean diff (95% CI)” value (hand OA participants [4]) was −101.9 (−248.4 to −44.8). The “AUSCAN stiffness Mean diff (95% CI)” value (hand OA participants [4]) was −13.5 (26.5 to −0.6), the “AUSCAN pain score Mean diff (95% CI)” value (hand OA participants [4]) was −62.5 (−141.6 to 16.6) and the “AUSCAN pain score Mean diff (95% CI)” value (hand OA participants [4]; listed as duloxetine) was −62.5. The “Efficacy for pain outcomes in knee OA” value (knee OA) was “shown efficacy for pain outcomes in knee OA”, the “Side effects: Total (adverse events recorded)” value (hand OA participants [5]) was 57 and the “Side effects: Cardiovascular” value (hand OA participants [5]; [6]) was 2. For the same compound, the “Side effects: Digestive” value (hand OA participants [5]; [6]) was 18, the “Side effects: ENT” value (hand OA participants [5]; [6]) was 2 and the “Side effects: Mental” value (hand OA participants [5]; [6]) was 9. For the same compound, the “Side effects: Nervous system, Dizziness” value (hand OA participants [5]; [6]) was 3, the “Side effects: Nervous system, Dry mouth” value (hand OA participants [5]; [6]) was 6 and the “Side effects: Nervous system, Headaches” value (hand OA participants [5]; [6]) was 8. For the same compound, the “Side effects: Nervous system, Sleepiness” value (hand OA participants [5]; [6]) was 3, the “Side effects: Ophthalmological” value (hand OA participants [5]; [6]) was 2 and the “Side effects: Respiratory” value (hand OA participants [5]; [6]) was 3. The “Side effects: Skin” value (hand OA participants [5]; [6]) was 1 and the “Participants discontinuing treatment / withdrawing because of (serious) adverse events” value (hand OA participants [5]) was 2.

In the case of `CC(C)C[C@H](CN)CC(=O)O` [Pregabalin, (3S)-3-(aminomethyl)-5-methylhexanoic acid], the “Hospital Anxiety and Depression Scale Depression 90 days (95% CI)” value (hand OA participants [1]) is reported as 4.1 (2.6 to 5.6), the “Hospital Anxiety and Depression Scale Depression Baseline (95% CI)” value (hand OA participants [1]) is reported as 5.1 (3.3 to 6.9) and the “Hospital Anxiety and Depression Scale Depression Mean diff (95% CI)” value (hand OA participants [1]) is reported as −1.1 (−2.1 to −0.02). For the same compound, the “Hospital Anxiety and Depression Scale Anxiety Baseline (95% CI)” value (hand OA participants [1]) was 5.2 (2.9 to 7.5), the “Hospital Anxiety and Depression Scale Anxiety” value (hand OA participants [1]) was 6.1 (3.8 to 8.3) and the “Numerical Rating Scale (NRS) 90 days (95% CI)” value (hand OA participants [2]) was 3.4 (2.4 to 4.4). The “Numerical Rating Scale (NRS) Baseline (95% CI)” value (hand OA participants [2]) was 6.1 (5.4 to 6.7), the “Numerical Rating Scale (NRS) Mean diff (95% CI)” value (hand OA participants [2]) was −2.7 (−3.5 to −1.9) and the “Consumption of rescue medication (total)” value (hand OA participants [3]) was 9 days. The “Average use of paracetamol as rescue medication compared with placebo” value (hand OA participants [3]) was “much lower”, the “AUSCAN pain score 90 days (95% CI)” value (hand OA participants [4]) was 176.5 (123.9 to 229.1) and the “AUSCAN pain score Baseline (95% CI)” value (hand OA participants [4]) was 308.5 (262.6 to 354.5). The “AUSCAN function 90 days (95% CI)” value (hand OA participants [4]) was 362.2 (281.7 to 442.7), the “AUSCAN stiffness 90 days (95% CI)” value (hand OA participants [4]) was 36.5 (23.0 to 49.9) and the “AUSCAN function Baseline (95% CI)” value (hand OA participants [4]) was 608.5 (541.3 to 675.7). For the same compound, the “AUSCAN stiffness Baseline (95% CI)” value (hand OA participants [4]) was 59.9 (51.8 to 67.9), the “AUSCAN function Mean diff (95% CI)” value (hand OA participants [4]) was −246.3 (−341.7 to −151.0) and the “AUSCAN stiffness Mean diff (95% CI)” value (hand OA participants [4]) was −23.4 (−35.7 to −11.1). For the same compound, the “AUSCAN pain score Mean diff (95% CI)” value (hand OA participants [4]) was −132.0 (−181.1 to −82.9), the “AUSCAN pain score Mean diff (95% CI)” value (hand OA participants [4]; listed as pregabalin) was −132.0 and the “Dose giving maximum analgesic and functional improvement effect (AUSCAN trajectory, FIG. 3)” value (hand OA participants [4]; result in words) was “maximum analgesic and functional improvement effect at the higher dose of 300 mg”. The “Side effects: Total (adverse events recorded)” value (hand OA participants [5]) was 55, the “Side effects: Cardiovascular” value (hand OA participants [5]; [6]) was 3 and the “Side effects: Digestive” value (hand OA participants [5]; [6]) was 7. For the same compound, the “Side effects: Genitourinary” value (hand OA participants [5]; [6]) was 1, the “Side effects: Mental” value (hand OA participants [5]; [6]) was 9 and the “Side effects: Nervous system, Dizziness” value (hand OA participants [5]; [6]) was 7. The “Side effects: Nervous system, Dry mouth” value (hand OA participants [5]; [6]) was 6, the “Side effects: Nervous system, Headaches” value (hand OA participants [5]; [6]) was 3 and the “Side effects: Nervous system, Loss of balance” value (hand OA participants [5]; [6]) was 7. The “Side effects: Nervous system, Sleepiness” value (hand OA participants [5]; [6]) was 5, the “Side effects: Ophthalmological” value (hand OA participants [5]; [6]) was 4 and the “Side effects: Respiratory” value (hand OA participants [5]; [6]) was 2. For the same compound, the “Participants discontinuing treatment / withdrawing because of (serious) adverse events” value (hand OA participants [5]) was 4.

For `CCN(CCO)CCCC(C)Nc1ccnc2cc(Cl)ccc12` (stereo not shown) [hydroxychloroquine], the “Pain reduction compared to placebo in primary hand OA” value (primary hand OA) is listed as “did not reduce pain compared to placebo”.
